# Experimental data: US12303517B1, “Oral testosterone therapy” (Lipocine, Inc., priority 2016, dated 2025)
# Legend:
# [1] = Randomized double-blind placebo-controlled dose escalating clinical study of oral T13 in hypogonadal males (serum testosterone pharmacokinetics); type: in vivo, human; conditions: for T Cavg (±SD) / T Cmax (±SD) / % with Cavg/day > 300 ng/dL / % with Cmax/dose < 1,500 ng/dL: hypogonadal males; for % with Cavg/day > 300 ng/dL / % with Cmax/dose < 1,500 ng/dL: serum T
# Protocol: Dosage Form Example B of Composition 4 with dosing regimen (Regimen #. 1-9) of dosing category BID-equal dose with daily dose range 500-1250 mg of T13 in this invention were used for a clinic study of Testosterone Therapy for hypogonadal males.
# This Clinical Study is a Randomized Double-Blind, Placebo-Controlled Dose Escalating Study of the Safety, Efficacy, Tolerability, and Pharmacokinetics of Testosterone Therapy in Hypogonadal Males. This clinic study was a single and multiple, ascending-dose study that was designed to determine the optimal starting, titration (if appropriate), or single fixed dose for safety and efficacy targeted by US FDA. The study also verified the time for testosterone levels to reach steady state and identified a suitable single fixed dose dosing regimen that satisfies unmet need for safety and efficacy for oral TRT.
# This study was carried out with conditions of a single-center, randomized, double-blind, placebo-controlled, ascending multiple-dose, and serial-group in adult hypogonadal male subjects. The objectives of this study were: • a) To assess the safety, efficacy, and tolerability of escalating single and multiple oral doses of T13 dosage forms in hypogonadal males • b) To determine the pharmacokinetics (PK) of testosterone (T), DHT, TT, DHTT, and estradiol (E2) after single and multiple oral doses of TT dosage forms in hypogonadal males • c) To identify single fixed dose dosing regimen satisfying USFDA target, not needing to titrate for restoring average serum T levels in hypogonadal males to the normal T range.
# The dosing regimen for this clinic study ranged from 500 mg daily dose to 1250 mg daily dose with […]. Observed pharmacokinetic parameters (T, DHT, T13, DHTT, and E2) after single and multiple oral doses of T13 dosage forms in the patients were recorded by each daily dose in the report. […] The overall analyzed results of this clinic study were plotted according to % of patients for safety (Cmax <1,500 ng/dL) and efficacy (Cavg >300 ng/dL) with a variety of dosing regimen. Its results are shown in the below table.
# [2] = Single fixed dose dosing regimen examples for safety and efficacy (serum T Cmax / Cavg criteria), with food; type: in vivo, human
# [3] = 750 mg T13 QD dose at steady state (14 days)
# [4] = daily dose 500 mg T13 (equivalent T dose 298 mg)
# [5] = daily dose 700 mg T13 (equivalent T dose 417 mg)
# [6] = daily dose 750 mg T13 QD (equivalent T dose 446 mg)
# [7] = daily dose 800 mg T13 (equivalent T dose 476 mg)
# [8] = daily dose 900 mg T13 (equivalent T dose 536 mg)
# [9] = daily dose 1000 mg T13 QD (equivalent T dose 595 mg)
# [10] = daily dose 1100 mg T13 (equivalent T dose 655 mg)
# [11] = daily dose 1150 mg T13 (equivalent T dose 685 mg)
# [12] = daily dose 1250 mg T13 (equivalent T dose 744 mg)
# [13] = Regimen 1, QD 500 mg T13, with food with at least 10 g of fat
# [14] = Regimen 2, QD 700 mg T13, with food with at least 10 g of fat
# [15] = Regimen 3, QD 750 mg T13, with food with at least 10 g of fat
# [16] = Regimen 4, QD 800 mg T13, with food with at least 10 g of fat
# [17] = Regimen 5, QD 900 mg T13, with food with at least 10 g of fat
# [18] = Regimen 6, QD 1000 mg T13, with food with at least 10 g of fat
# [19] = Regimen 7, QD 1100 mg T13, with food with at least 10 g of fat
# [20] = Regimen 8, QD 1150 mg T13, with food with at least 10 g of fat
compound,measurement,setting,value
"CCCCCCCCCCCCC(=O)O[C@H]1CC[C@H]2[C@@H]3CCC4=CC(=O)CC[C@]4(C)[C@H]3CC[C@]12C [T13, testosterone tridecanoate]",T Cavg (±SD),[1]; [3],352 (±41) ng/dL
same,T Cmax (±SD),[1]; [3],822 (±254) ng/dL
same,T Cavg (±SD),[1]; 1000 mg QD dose at steady state (14 days),405 (±148) ng/dL
same,T Cmax (±SD),[1]; 1000 mg T13 QD dose at steady state (14 days),930 (±326) ng/dL
same,% with Cavg/day > 300 ng/dL,[1]; [4],36.3%
same,"% with Cmax/dose < 1,500 ng/dL",[1]; [4],100.0%
same,% with Cavg/day > 300 ng/dL,[1]; [5],71.5%
same,"% with Cmax/dose < 1,500 ng/dL",[1]; [5],100.0%
same,% with Cavg/day > 300 ng/dL,[1]; [6],76.2%
same,"% with Cmax/dose < 1,500 ng/dL",[1]; [6],99.5%
same,% with Cavg/day > 300 ng/dL,[1]; [7],80.0%
same,"% with Cmax/dose < 1,500 ng/dL",[1]; [7],98.8%
same,% with Cavg/day > 300 ng/dL,[1]; [8],85.0%
same,"% with Cmax/dose < 1,500 ng/dL",[1]; [8],96.7%
same,% with Cavg/day > 300 ng/dL,[1]; [9],88.1%
same,"% with Cmax/dose < 1,500 ng/dL",[1]; [9],92.8%
same,% with Cavg/day > 300 ng/dL,[1]; [10],90.0%
same,"% with Cmax/dose < 1,500 ng/dL",[1]; [10],85.6%
same,% with Cavg/day > 300 ng/dL,[1]; [11],90.7%
same,"% with Cmax/dose < 1,500 ng/dL",[1]; [11],80.0%
same,% with Cavg/day > 300 ng/dL,[1]; [12],91.6%
same,"% with Cmax/dose < 1,500 ng/dL",[1]; [12],66.8%
same,US FDA T level target for safety and efficacy for testosterone replacement therapy,"[1]; single fixed dose, no titration, 750 mg to 1100 mg daily dose of T13",satisfies US FDA T level target for safety and efficacy
same,Cavg > 300 ng/dL ≥75% patients,[2]; [13],No
same,Cavg > 300 ng/dL ≥80% patients,[2]; [13],No
same,Cmax > 1500 ng/dL <15% patients,[2]; [13],Yes
same,Cmax > 1500 ng/dL <20% patients,[2]; [13],Yes
same,Cmax > 1800 ng/dL <5% patients,[2]; [13],Yes
same,Cmax > 1800 ng/dL <10% patients,[2]; [13],Yes
same,Cmax > 2500 ng/dL <2% patients,[2]; [13],Yes
same,Cmax > 2500 ng/dL none of patients,[2]; [13],Yes
same,Cavg > 300 ng/dL ≥75% patients,[2]; [14],No
same,Cavg > 300 ng/dL ≥80% patients,[2]; [14],No
same,Cmax > 1500 ng/dL <15% patients,[2]; [14],Yes
same,Cmax > 1500 ng/dL <20% patients,[2]; [14],Yes
same,Cmax > 1800 ng/dL <5% patients,[2]; [14],Yes
same,Cmax > 1800 ng/dL <10% patients,[2]; [14],Yes
same,Cmax > 2500 ng/dL <2% patients,[2]; [14],Yes
same,Cmax > 2500 ng/dL none of patients,[2]; [14],Yes
same,Cavg > 300 ng/dL ≥75% patients,[2]; [15],Yes
same,Cavg > 300 ng/dL ≥80% patients,[2]; [15],No
same,Cmax > 1500 ng/dL <15% patients,[2]; [15],Yes
same,Cmax > 1500 ng/dL <20% patients,[2]; [15],Yes
same,Cavg > 300 ng/dL ≥75% patients,[2]; [16],Yes
same,Cavg > 300 ng/dL ≥80% patients,[2]; [16],Yes
same,Cavg > 300 ng/dL ≥75% patients,[2]; [17],Yes
same,Cavg > 300 ng/dL ≥80% patients,[2]; [17],Yes
same,Cmax > 1500 ng/dL <15% patients,[2]; [17],Yes
same,Cmax > 1500 ng/dL <20% patients,[2]; [17],Yes
same,Cmax > 1800 ng/dL <5% patients,[2]; [17],Yes
same,Cmax > 1800 ng/dL <10% patients,[2]; [17],Yes
same,Cmax > 2500 ng/dL <2% patients,[2]; [17],Yes
same,Cmax > 2500 ng/dL none of patients,[2]; [17],Yes
same,Cavg > 300 ng/dL ≥75% patients,[2]; [18],Yes
same,Cavg > 300 ng/dL ≥80% patients,[2]; [18],Yes
same,Cmax > 1500 ng/dL <15% patients,[2]; [18],Yes
same,Cmax > 1500 ng/dL <20% patients,[2]; [18],Yes
same,Cmax > 1800 ng/dL <5% patients,[2]; [18],Yes
same,Cmax > 1800 ng/dL <10% patients,[2]; [18],Yes
same,Cmax > 2500 ng/dL <2% patients,[2]; [18],Yes
same,Cmax > 2500 ng/dL none of patients,[2]; [18],Yes
same,Cavg > 300 ng/dL ≥75% patients,[2]; [19],Yes
same,Cavg > 300 ng/dL ≥80% patients,[2]; [19],Yes
same,Cmax > 1500 ng/dL <15% patients,[2]; [19],Yes
same,Cmax > 1500 ng/dL <20% patients,[2]; [19],Yes
same,Cmax > 1800 ng/dL <5% patients,[2]; [19],Yes
same,Cmax > 1800 ng/dL <10% patients,[2]; [19],Yes
same,Cmax > 2500 ng/dL <2% patients,[2]; [19],Yes
same,Cmax > 2500 ng/dL none of patients,[2]; [19],Yes
same,Cavg > 300 ng/dL ≥75% patients,[2]; [20],Yes
same,Cavg > 300 ng/dL ≥80% patients,[2]; [20],Yes
same,Cmax > 1500 ng/dL <15% patients,[2]; [20],No
same,Cmax > 1500 ng/dL <20% patients,[2]; [20],Yes
same,Cmax > 1800 ng/dL <5% patients,[2]; [20],Yes
same,Cmax > 1800 ng/dL <10% patients,[2]; [20],Yes
same,Cmax > 2500 ng/dL <2% patients,[2]; [20],Yes
same,Cmax > 2500 ng/dL none of patients,[2]; [20],No
same,Cavg > 300 ng/dL ≥75% patients,"[2]; Regimen 9, QD 1250 mg T13, with food with at least 10 g of fat",Yes
